Consider 14 compounds from ChEMBL document CHEMBL4651402, “Screening of ~5500 FDA-approved drugs and clinical candidates for anti-SARS-CoV-2 activity” (2021).

Where only a bound is given, the exact number is not on record here.

Data set [1] relates to SARS-CoV-2. As to the kind of experiment: microbe, parasite or virus in culture. Conditions: Severe acute respiratory syndrome coronavirus 2, Vero C1008, 48 h. In kind it is functional, organism-based, Chlorocebus sabaeus, Vero C1008.
Data set [2] relates to SARS-CoV-2. As to the kind of experiment: microbe, parasite or virus in culture. The settings on record: Severe acute respiratory syndrome coronavirus 2, Vero C1008, 48 h.
The nature of data set [3]: in vitro. Conditions: chlorocebus sabaeus.
[4] abbreviates: Vero E6 (Vero C1008) cells, CC50.
[5] abbreviates: Vero E6 (Vero C1008) cells, pCC50.

On to `Cc1c(-c2ccc(O)cc2)n(Cc2ccc(OCCN3CCCCC3)cc2)c2ccc(O)cc12` [PIPENDOXIFENE], for which the IC50 in data set [1] (read-out: IC50) was over 6.31 µM; in data set [1] (read-out: pIC50 (converted)) it was over 6.31 µM; in data set [2] it was 3.63 µM; in data set [2] (read-out: pIC50 (converted)) it was 3.63 µM. Moreover, the CC50 at 48 h in data set [3] (setting [4]) was 4.62 µM; in data set [3] (setting [5]), 4.57 µM.
`CC(=O)c1ccc2c(c1)N(CCCN1CCC(CCO)CC1)c1ccccc1S2` [PIPERACETAZINE]: the IC50 was over 12.6 µM in data set [1] (read-out: IC50), over 12.6 µM in data set [1] (read-out: pIC50 (converted)), 16.2 µM in data set [2] and 16.2 µM in data set [2] (read-out: pIC50 (converted)). The CC50 at 48 h in data set [3] (setting [4]) is 12.2 µM; in data set [3] (setting [5]) it was 12 µM.
Turning to `COc1cc(/C=C/C(=O)N2CCC=CC2=O)cc(OC)c1OC` [PIPLARTINE], the IC50 in data set [1] (read-out: IC50), in data set [1] (read-out: pIC50 (converted)), in data set [2] and in data set [2] (read-out: pIC50 (converted)) was over 50.1 µM in each case. In addition, the CC50 at 48 h in data set [3] (setting [4]) and in data set [3] (setting [5]) was 9.55 µM throughout.
For the compound `CN(C)S(=O)(=O)c1ccc2c(c1)N(CCCN1CCC(CCO)CC1)c1ccccc1S2` [PIPOTIAZINE], the IC50 in data set [1] (read-out: IC50) is over 100 µM; in data set [1] (read-out: pIC50 (converted)), over 100 µM; in data set [2], 13.8 µM; in data set [2] (read-out: pIC50 (converted)), 13.8 µM. The compound further showed a CC50 at 48 h in data set [3] (setting [5]) of 7.24 µM.
For `Cc1ccc(C(=O)Nc2ccc(CN3CCN(C)CC3)c(C(F)(F)F)c2)cc1C#Cc1cnc2cccnn12` [PONATINIB], the IC50 in data set [1] (read-out: IC50), in data set [1] (read-out: pIC50 (converted)), in data set [2] and in data set [2] (read-out: pIC50 (converted)) was over 100 µM in each case. In addition, the results for the CC50 at 48 h in data set [3] (setting [4]) and in data set [3] (setting [5]) were 0.989 µM and 0.977 µM, respectively.
On to `CC[C@@H]([C@H](C)O)n1ncn(-c2ccc(N3CCN(c4ccc(OC[C@@H]5CO[C@@](Cn6cncn6)(c6ccc(F)cc6F)C5)cc4)CC3)cc2)c1=O` [POSACONAZOLE], for which the IC50 in data set [1] (read-out: IC50), in data set [1] (read-out: pIC50 (converted)), in data set [2] and in data set [2] (read-out: pIC50 (converted)) was over 100 µM in each case. Further, the CC50 at 48 h in data set [3] (setting [4]) and in data set [3] (setting [5]) was over 100 µM in each case.
For `CCCC(C(=O)OCCN(CC)CC)(c1ccccc1)c1ccccc1` [PROADIFEN], the IC50 was over 100 µM in data set [1] (read-out: IC50), over 100 µM in data set [1] (read-out: pIC50 (converted)), 5.13 µM in data set [2] and 5.13 µM in data set [2] (read-out: pIC50 (converted)). Moreover, the CC50 at 48 h in data set [3] (setting [4]) and in data set [3] (setting [5]) was 24 µM in each case.
For the compound `Nc1ccc2cc3ccc(N)cc3nc2c1` [PROFLAVINE], the IC50 in data set [1] (read-out: IC50) is over 25.1 µM; in data set [1] (read-out: pIC50 (converted)) it was over 25.1 µM; in data set [2], about 15 µM; in data set [2] (read-out: pIC50 (converted)) it was about 14.8 µM. Also, the CC50 at 48 h in data set [3] (setting [4]) and in data set [3] (setting [5]) was about 6.61 µM each time.
With `CN(C)CCCN1c2ccccc2Sc2ccccc21` [PROMAZINE], the IC50 was over 100 µM in data set [1] (read-out: IC50), over 100 µM in data set [1] (read-out: pIC50 (converted)), 16.2 µM in data set [2] and 16.2 µM in data set [2] (read-out: pIC50 (converted)). The CC50 at 48 h in data set [3] (setting [4]) and in data set [3] (setting [5]) was 25.7 µM each time.
Take `CC(CN1c2ccccc2Sc2ccccc21)N(C)C` (stereo not drawn) [PROMETHAZINE]: the IC50 in data set [1] (read-out: IC50) is over 100 µM; in data set [1] (read-out: pIC50 (converted)), over 100 µM; in data set [2], 21.9 µM; in data set [2] (read-out: pIC50 (converted)), 21.9 µM. Besides, the CC50 at 48 h in data set [3] (setting [4]) and in data set [3] (setting [5]) was 33.1 µM in each case.
In the case of `CCCOc1ccc(C(=O)CCN2CCCCC2)cc1` [PROPIPOCAINE], the IC50 in data set [1] (read-out: IC50), in data set [1] (read-out: pIC50 (converted)), in data set [2] and in data set [2] (read-out: pIC50 (converted)) was over 100 µM each time. Also, the CC50 at 48 h in data set [3] (setting [4]) and in data set [3] (setting [5]) was 31.6 µM each time.
On to `CNCCCC1c2ccccc2C=Cc2ccccc21` [PROTRIPTYLINE], for which the IC50 in data set [1] (read-out: IC50), in data set [1] (read-out: pIC50 (converted)), in data set [2] and in data set [2] (read-out: pIC50 (converted)) was over 100 µM each time. Also, the CC50 at 48 h was 26.3 µM in data set [3] (vero c1008, CC50) and 26.3 µM in data set [3] (vero c1008, pCC50).
On to `CCCCCCC(C)(C)c1cc(O)c([C@H]2CC(=O)[C@H]3C[C@@H]2C3(C)C)c(OC(=O)/C=C/C(=O)O)c1` [PRS-211375], for which the IC50 in data set [1] (read-out: IC50) was over 50.1 µM; in data set [1] (read-out: pIC50 (converted)), over 50.1 µM; in data set [2], over 100 µM; in data set [2] (read-out: pIC50 (converted)), over 100 µM. The CC50 at 48 h in data set [3] (setting [4]) was 7.67 µM; in data set [3] (setting [5]), 7.59 µM.
For the compound `COC(=O)[C@H]1[C@H]2C[C@@H]3c4[nH]c5cc(OC)ccc5c4CCN3C[C@H]2C[C@@H](OC(=O)c2cc(OC)c(OC)c(OC)c2)[C@@H]1OC` [RESERPINE], the IC50 in data set [1] (read-out: IC50) is over 50.1 µM; in data set [1] (read-out: pIC50 (converted)), over 50.1 µM; in data set [2], over 25.1 µM; in data set [2] (read-out: pIC50 (converted)) it was over 25.1 µM. Moreover, the CC50 at 48 h in data set [3] (setting [4]) and in data set [3] (setting [5]) was about 11 µM each time.
